Source: patent publication US6737383B1, “Herbicidal oxadiazolidines” (priority 1999, dated 2004)

Tests used:
[1] = test system: corn; assay: Test B pre/postemergence corn; assay type: in vivo, Zea mays
Method in brief: (§1)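 Response is a visual 0-to-10 score relative to untreated plants, where 0 means no effect and 10 means complete control, taken twelve to sixteen days after application. Treatments went onto soil at planting and onto foliage of 1- to 4-leaf plants, using a surfactant-containing non-phytotoxic solvent.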

[2] = test system: pigweed; assay: Test B pre/postemergence pigweed; assay type: in vivo, Amaranthus retroflexus
Method in brief: as §1

[3] = test system: velvetleaf; assay: Test B pre/postemergence velvetleaf; assay type: in vivo, Abutilon theophrasti
Method in brief: as §1

[4] = test system: duck salad; assay: Test B flood test duck salad; assay type: in vivo, Heteranthera limosa
Method in brief: (§2)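 Plants were grown to the 2-leaf stage before treatment with test chemical, then held in a greenhouse for twelve to sixteen days. Injury was visually rated against untreated controls on a 0–10 scale, where 0 is no effect and 10 is complete control.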

[5] = test system: blackgrass; assay: Test B pre/postemergence blackgrass; assay type: in vivo, Alopecurus myosuroides
Method in brief: as §1

[6] = test system: sugar beet; assay: Test B pre/postemergence sugar beet; assay type: in vivo, Beta vulgaris
Method in brief: as §1

[7] = test system: rice; assay: Test B flood test rice; assay type: in vivo, Oryza sativa
Method in brief: as §2

[8] = test system: bedstraw; assay: Test B pre/postemergence bedstraw; assay type: in vivo, Galium aparine
Method in brief: as §1

[9] = test system: bamyardgrass; assay: Test B flood test barnyardgrass; assay type: in vivo, Echinochloa crus-galli
Method in brief: as §2

[10] = test system: surinam grass; assay: Test B pre/postemergence surinam grass; assay type: in vivo, Brachiaria decumbens
Method in brief: as §1

[11] = test system: cocklebur; assay: Test B pre/postemergence cocklebur; assay type: in vivo, Xanthium strumarium
Method in brief: as §1

[12] = test system: rape; assay: Test B pre/postemergence rape; assay type: in vivo, Brassica napus
Method in brief: as §1

[13] = test system: giant foxtail; assay: Test B pre/postemergence giant foxtail; assay type: in vivo, Setaria faberii
Method in brief: as §1

[14] = test system: purple nutsedge; assay: Test B pre/postemergence purple nutsedge; assay type: in vivo, Cyperus rotundus
Method in brief: as §1

[15] = test system: morningglory; assay: Test B pre/postemergence morningglory; assay type: in vivo, Ipomoea hederacea
Method in brief: as §1

[16] = Postemergence, Rate 62 g/ha, scale 0 to 10, 0 is no effect, 10 is complete control
[17] = Postemergence, Rate 125 g/ha, scale of 0 to 10 where 0 is no effect and 10 is complete control
[18] = Postemergence, Rate 250 g/ha, scale of 0 to 10, 0 is no effect, 10 is complete control
[19] = Postemergence, Rate 500 g/ha, scale of 0 to 10 where 0 is no effect and 10 is complete control
[20] = Preemergence, Rate 62 g/ha, scale 0 to 10 (0 no effect, 10 complete control)
[21] = Preemergence, Rate 125 g/ha, scale of 0 to 10 where 0 is no effect and 10 is complete control
[22] = Preemergence, Rate 500 g/ha, scale of 0 to 10 where 0 is no effect and 10 is complete control
[23] = Rate 62 g/ha, flood test species, Pre-emergence, visual evaluation after twelve to sixteen days
[24] = Rate 125 g/ha, under heading Pre-emergence, flood test species, visual evaluation after twelve to sixteen days
[25] = Rate 250 g/ha, Pre-emergence (flood test species), scale 0 to 10, 0 is no effect, 10 is complete control
[26] = Rate 500 g/ha, Pre-emergence section of Table B, 0 to 10 scale (0 no effect, 10 complete control)

## CCC(C)n1c(=O)on(C(=O)N(c2ccccc2)C(C)C)c1=O (stereo not shown) [Compound 610]
[1]; [16]
  Plant response rating, Corn: 0
[1]; [17]
  Plant response rating, Corn: 0
[1]; [18]
  Corn plant response rating: 2
[1]; [19]
  Plant response rating, Corn: 5
[1]; [20]
  Corn plant response rating: 0
[1]; [21]
  Corn plant response rating: 3
[1]; Preemergence, Rate 250 g/ha
  Corn plant response rating (0 to 10 scale): 7
[1]; [22]
  Plant response rating, Corn: 8
[2]; [16]
  Plant response rating, Redroot pigweed: 0
[2]; [17]
  Plant response rating, Redroot pigweed: 2
[2]; [18]
  Redroot pigweed plant response rating: 6
[2]; [19]
  Plant response rating, Redroot pigweed: 7
[2]; [20]
  Redroot pigweed plant response rating: 10
[2]; [21]
  Redroot pigweed plant response rating: 10
[2]; [22]
  Plant response rating, Redroot pigweed: 10
[3]; [16]
  Plant response rating, Velvetleaf: 0
[3]; [17]
  Plant response rating, Velvetleaf: 3
[3]; [18]
  Velvetleaf plant response rating: 7
[3]; [19]
  Plant response rating, Velvetleaf: 7
[3]; [20]
  Velvetleaf plant response rating: 7
[3]; [21]
  Velvetleaf plant response rating: 7
[3]; [22]
  Plant response rating, Velvetleaf: 10
[4]; [23]
  Plant response rating, Ducksalad (0 to 10 scale, 0 is no effect, 10 is complete control): 0
[4]; [24]
  Ducksalad plant response rating (0 to 10 scale, 0 is no effect, 10 is complete control): 0
[4]; [25]
  Ducksalad plant response rating: 0
[4]; [26]
  Ducksalad plant response rating: 7
[5]; [16]
  Plant response rating, Blackgrass: 8
[5]; [17]
  Plant response rating, Blackgrass: 9
[5]; [18]
  Blackgrass plant response rating: 9
[5]; [19]
  Plant response rating, Blackgrass: 10
[5]; [20]
  Blackgrass plant response rating: 8
[5]; [21]
  Blackgrass plant response rating: 9
[5]; Preemergence, Rate 250 g/ha
  Blackgrass plant response rating (0 to 10 scale): 10
[5]; [22]
  Blackgrass plant response rating: 10
[6]; [16]
  Plant response rating, Sugarbeets: 0
[6]; [17]
  Plant response rating, Sugarbeets: 0
[6]; [18]
  Sugarbeets plant response rating: 0
[6]; [19]
  Plant response rating, Sugarbeets: 0
[6]; [20]
  Sugarbeets plant response rating: 3
[6]; [21]
  Sugarbeets plant response rating: 7
[6]; [22]
  Plant response rating, Sugarbeets: 8
[7]; [23]
  Plant response rating, Rice (0 to 10 scale, 0 is no effect, 10 is complete control): 0
[7]; [24]
  Rice plant response rating (0 to 10 scale, 0 is no effect, 10 is complete control): 0
[7]; [25]
  Rice plant response rating: 2
[7]; [26]
  Rice plant response rating: 8
[8]; [16]
  Plant response rating, Bedstraw: 0
[8]; [18]
  Bedstraw plant response rating: 4
[8]; [19]
  Plant response rating, Bedstraw: 9
[8]; [22]
  Bedstraw plant response rating: 10
[9]; [23]
  Plant response rating, Barnyardgrass (0 to 10 scale, 0 is no effect, 10 is complete control): 0
[9]; [24]
  Barnyardgrass plant response rating (0 to 10 scale, 0 is no effect, 10 is complete control): 0
[9]; [25]
  Barnyardgrass plant response rating: 0
[9]; [26]
  Barnyardgrass plant response rating: 8
[10]; [16]
  Plant response rating, B. signalgrass: 0
[10]; [17]
  Plant response rating, B. signalgrass: 6
[10]; [18]
  B. signalgrass plant response rating: 7
[10]; [19]
  Plant response rating, B. signalgrass: 9
[10]; [20]
  B. signalgrass plant response rating: 6
[10]; [21]
  B. signalgrass plant response rating: 8
[10]; Preemergence, Rate 250 g/ha
  B. signalgrass plant response rating (0 to 10 scale, 0 is no effect, 10 is complete control): 9
[10]; [22]
  B. signalgrass plant response rating: 10
[11]; [16]
  Plant response rating, Cocklebur: 0
[11]; [17]
  Plant response rating, Cocklebur: 1
[11]; [18]
  Cocklebur plant response rating: 0
[11]; [19]
  Plant response rating, Cocklebur: 2
[11]; [20]
  Cocklebur plant response rating: 0
[11]; [21]
  Cocklebur plant response rating: 0
[11]; Preemergence, Rate 250 g/ha
  Cocklebur plant response rating (0 to 10 scale): 0
[11]; [22]
  Plant response rating, Cocklebur: 3
[12]; [16]
  Plant response rating, Rape: 0
[12]; [17]
  Plant response rating, Rape: 2
[12]; [18]
  Rape plant response rating: 3
[12]; [19]
  Plant response rating, Rape: 5
[12]; [20]
  Rape plant response rating: 3
[12]; [21]
  Rape plant response rating: 8
[12]; [22]
  Plant response rating, Rape: 10
[13]; [16]
  Plant response rating, Giant foxtail: 8
[13]; [17]
  Plant response rating, Giant foxtail: 7
[13]; [18]
  Giant foxtail plant response rating: 9
[13]; [19]
  Plant response rating, Giant foxtail: 9
[13]; [20]
  Giant foxtail plant response rating: 9
[13]; [21]
  Giant foxtail plant response rating: 10
[13]; [22]
  Plant response rating, Giant foxtail: 10
[14]; [16]
  Plant response rating, Nutsedge: 0
[14]; [17]
  Plant response rating, Nutsedge: 0
[14]; [18]
  Nutsedge plant response rating: 5
[14]; [19]
  Plant response rating, Nutsedge: 6
[14]; [20]
  Nutsedge plant response rating: 0
[14]; [21]
  Nutsedge plant response rating: 0
[14]; [22]
  Plant response rating, Nutsedge: 3
[15]; [16]
  Plant response rating, Morningglory: 8
[15]; [17]
  Plant response rating, Morningglory: 8
[15]; [18]
  Morningglory plant response rating: 8
[15]; [19]
  Plant response rating, Morningglory: 9
[15]; [20]
  Morningglory plant response rating: 0
[15]; [21]
  Morningglory plant response rating: 3
[15]; [22]
  Plant response rating, Morningglory: 8
